Measured values from patent US5962314A, “Calcium receptor-active molecules” (priority 1997, dated 1999).
Entries after “also recorded” stand apart in the source; their conditions may differ. Like-named read-outs stand apart in the source and are kept apart here.

Assays:
Type in all cases: cell-based
[1] = molecular target: T1, bovine parathyroid cell calcium receptor (Bos taurus, UniProt P35384); assay: Cl- current in Xenopus oocytes expressing BoPCaR 1; conditions: for effect on Cl- current: BoPCaR 1-injected oocytes; for effect in control oocytes: uninjected, water or rat liver mRNA oocytes
T1 construct: expressed in transfected cells; host or cells: Xenopus laevis oocytes injected with BoPCaR 1 cRNA
T1 sequence (P35384 20-1085): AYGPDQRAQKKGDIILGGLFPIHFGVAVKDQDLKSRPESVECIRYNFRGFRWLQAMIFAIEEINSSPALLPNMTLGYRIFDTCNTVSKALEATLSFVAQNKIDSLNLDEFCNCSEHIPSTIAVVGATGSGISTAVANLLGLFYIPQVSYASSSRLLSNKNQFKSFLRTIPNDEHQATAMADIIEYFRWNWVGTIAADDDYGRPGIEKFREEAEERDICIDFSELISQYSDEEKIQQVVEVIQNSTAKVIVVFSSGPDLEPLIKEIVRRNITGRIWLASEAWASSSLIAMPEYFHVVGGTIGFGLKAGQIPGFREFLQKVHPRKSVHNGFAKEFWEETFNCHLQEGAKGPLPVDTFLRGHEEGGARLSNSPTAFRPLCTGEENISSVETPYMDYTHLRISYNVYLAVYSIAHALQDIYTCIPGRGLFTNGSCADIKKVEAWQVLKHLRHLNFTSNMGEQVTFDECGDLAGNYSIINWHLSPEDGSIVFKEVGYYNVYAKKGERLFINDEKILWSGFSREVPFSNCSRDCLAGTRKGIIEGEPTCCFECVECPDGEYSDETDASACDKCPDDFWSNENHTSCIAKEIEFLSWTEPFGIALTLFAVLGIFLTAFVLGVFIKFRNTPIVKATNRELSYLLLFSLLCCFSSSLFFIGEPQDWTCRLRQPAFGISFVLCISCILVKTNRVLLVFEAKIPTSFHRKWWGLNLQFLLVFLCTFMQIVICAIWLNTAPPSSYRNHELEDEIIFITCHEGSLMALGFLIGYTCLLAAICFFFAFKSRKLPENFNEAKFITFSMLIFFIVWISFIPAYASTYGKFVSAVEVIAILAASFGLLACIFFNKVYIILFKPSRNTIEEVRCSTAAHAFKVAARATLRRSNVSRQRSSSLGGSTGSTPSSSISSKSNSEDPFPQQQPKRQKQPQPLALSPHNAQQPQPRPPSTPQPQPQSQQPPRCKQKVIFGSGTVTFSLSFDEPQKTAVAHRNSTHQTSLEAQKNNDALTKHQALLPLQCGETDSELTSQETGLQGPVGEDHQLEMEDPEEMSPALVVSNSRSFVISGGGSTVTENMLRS
Method: Several pharmacological and biochemical criteria were used to identify this clone as encoding a bona fide bovine parathyroid Ca^2+ receptor. […] These responses increased markedly over a period of one to four days after injection of the eggs with cRNA prepared from the BoPCaR 1 cDNA. Furthermore, the ranges of the concentrations of the two cations eliciting this response were very similar to those shown previously to act on bovine parathyroid cells in vitro.
Xenopus oocytes were injected with BoPCaR 1, the 5.3 Kb cDNA encoding a bovine parathyroid cell calcium receptor as described in Example 25. After two to three days, Cl^- currents were examined in the oocytes using a two-electrode voltage clamp.
Xenopus oocytes were injected with BoPCaR 1 as described in Example 25. After two to three days, Cl^- currents were examined in the oocytes using two electrode voltage clamp.

[2] = molecular target: T2, human parathyroid cell calcium receptor (Homo sapiens, UniProt P41180); assay: Cl- current in Xenopus oocytes expressing human parathyroid cell calcium receptor; conditions: for effect on Cl- current: 3 to 30 μM, 0.3 mM extracellular Ca2+
T2 construct: T7 cRNA injected into Xenopus oocytes
T2 sequence (P41180 with tags, fused parts or gaps INS536PLTFVLSVLQ/Q926R/E1011Q): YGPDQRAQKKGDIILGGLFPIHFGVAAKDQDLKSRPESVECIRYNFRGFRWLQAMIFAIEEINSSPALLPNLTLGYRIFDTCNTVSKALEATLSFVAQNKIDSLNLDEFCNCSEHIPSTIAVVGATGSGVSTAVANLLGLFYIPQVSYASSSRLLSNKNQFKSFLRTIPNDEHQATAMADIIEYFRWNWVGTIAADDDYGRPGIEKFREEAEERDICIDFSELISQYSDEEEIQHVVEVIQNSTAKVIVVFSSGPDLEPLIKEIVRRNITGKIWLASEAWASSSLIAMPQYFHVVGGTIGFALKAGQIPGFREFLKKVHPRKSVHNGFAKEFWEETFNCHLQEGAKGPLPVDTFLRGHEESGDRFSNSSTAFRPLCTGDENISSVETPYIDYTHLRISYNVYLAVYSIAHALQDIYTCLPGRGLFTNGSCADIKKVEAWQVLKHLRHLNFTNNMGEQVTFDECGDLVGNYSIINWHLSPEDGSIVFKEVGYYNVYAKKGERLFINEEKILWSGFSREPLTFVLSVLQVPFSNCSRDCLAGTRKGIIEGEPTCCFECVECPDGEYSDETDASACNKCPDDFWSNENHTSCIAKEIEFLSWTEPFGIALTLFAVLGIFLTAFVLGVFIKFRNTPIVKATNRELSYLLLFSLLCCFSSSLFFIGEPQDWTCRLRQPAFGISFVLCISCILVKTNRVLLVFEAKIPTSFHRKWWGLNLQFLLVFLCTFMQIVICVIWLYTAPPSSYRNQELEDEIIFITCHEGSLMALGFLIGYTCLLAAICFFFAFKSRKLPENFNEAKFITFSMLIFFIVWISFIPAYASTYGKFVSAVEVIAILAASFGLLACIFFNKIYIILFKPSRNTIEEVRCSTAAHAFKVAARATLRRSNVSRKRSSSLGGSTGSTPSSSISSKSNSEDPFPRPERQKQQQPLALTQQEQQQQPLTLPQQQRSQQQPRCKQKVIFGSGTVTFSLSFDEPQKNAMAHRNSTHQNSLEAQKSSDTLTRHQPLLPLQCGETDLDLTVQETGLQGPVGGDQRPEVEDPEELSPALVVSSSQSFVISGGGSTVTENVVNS
Method: Representative cDNA inserts for both size classes were subcloned into the plasmid vector pBluescript SK. Linearization followed by in vitro transcription using T7 RNA polymerase produced cRNA transcripts. The cRNA transcripts were injected into Xenopus oocytes (150 ng/μl RNA; 50 nl/oocyte) for functional analysis. Following incubation periods of 2-4 days, the oocytes were assayed for the presence of functional calcium receptors. Both clone types gave rise to functional calcium receptors as assessed by the stimulation of calcium-activated chloride currents upon addition of appropriate calcium receptor agonists. […] Thus, both clones encode a functional, human parathyroid cell calcium receptor.
Xenopus oocytes were injected with pHuPCaR 5.2, the 5.2 Kb cDNA encoding a parathyroid cell calcium receptor derived from a human parathyroid cell adenoma. (See Example 27.) After two to three days, Cl^- currents were measured in the oocytes using a two-electrode voltage clamp.

[3] = molecular target: T3, parathyroid cell calcium receptor (Bos taurus, UniProt P35384); assay: cell-based
T3 sequence (P35384 20-1085): T1 sequence (P35384 20-1085)
Method: For example,. bovine parathyroid cells loaded with fura-2 are initially suspended in buffer containing 0.5 mM CaCl2. A test substance is added to the cuvette in a small volume (5-15 μl) and changes in the fluorescence signal are measured. Cumulative increases in the concentration of the test substance are made in the cuvette until some predetermined concentration is achieved or no further changes in fluorescence are noted.
Human parathyroid glands, were obtained from patients undergoing surgical removal of parathyroid tissue for primary or uremic hyperparathyroidism (uremic HPT), and were treated similarly to bovine tissue.
The cells were then pelleted, resuspended in the same buffer, but lacking the ester, and incubated a further 15 minutes at 37° C. The cells were subsequently washed twice with PCB containing 0.5 mM CaCl2 and 0.5% BSA and maintained at room temperature (about 20° C.). Immediately before use, the cells were diluted five-fold with prewarmed 0.5 mM CaCl2 -PCB to obtain a final BSA concentration of 0.1%. The concentration of cells in the cuvette used for fluorescence recording was 1-2×10^6 /ml.
The fluorescence of indicator-loaded cells was measured at 37° C. in a spectrofluorimeter (Biomedical Instrumentation Group, University of Pennsylvania, Philadelphia, Pa.) equipped with a thermostated cuvette holder and magnetic stirrer using excitation and emission wavelengths of 340 and 510 nm, respectively. […] Leakage of dye is dependent on temperature and most occurs within the first 2 minutes after warming the cells in the cuvette. Dye leakage increases only very slowly thereafter. To correct the calibration for dye leakage, cells were placed in the cuvette and stirred at 37° C. for 2-3 minutes. The cell suspension was then removed, the cells pelleted, and the supernatant returned to a clean cuvette. […] This estimate was subtracted from the apparent Fmin.

Row | Compound | effect on Cl- current [1] | effect on Cl- current in absence of extracellular Ca2+ [1] | effect in control oocytes [1] | effect on Cl- current [2] | response in absence of extracellular Ca2+ [2] | effect on [Ca2+]i [3] | effect on [Ca2+]i ([3]; 10 μM, Ca2+-free) | effect on [Ca2+]i ([3]; 100 μM, Ca2+-free) | effect on extracellular Ca2+-evoked increases in [Ca2+]i ([3]; neomycin B 30 μM / maximally effective concentration) | effect on intracellular Ca2+ ([3]; neomycin B 30 μM, protamine 1 μg/ml) | effective concentration range, Cl- current ([1]; BoPCaR 1 oocytes) | effect on response to extracellular Ca2+ [3] | effect on [Ca2+]i in absence of extracellular Ca2+ ([3]; Ca2+-free buffer) | effect on extracellular Ca2+ concentration-response curve [1] | activation of oocyte-expressed receptor [2] | effect on extracellular Ca2+ concentration-response curve [2]
1 | NCCCNCCCCNCCCNCCCNCCCNC(=O)Cc1c[nH]c2ccccc12 [NPS 019] | caused oscillatory increases in the Cl^- | persisted in the absence of extracellular Ca^2+ | Neither NPS 017 nor NPS 019 elicited changes in Cl^- | evoked increases in the Cl^- | persisted | – | – | – | – | – | – | – | – | – | – | –
2 | NC[C@@H]1O[C@H](O[C@H]2[C@@H](O)[C@H](O[C@@H]3[C@@H](O)[C@H](N)C[C@H](N)[C@H]3O[C@H]3O[C@H](CN)[C@@H](O)[C@H](O)[C@H]3N)O[C@@H]2CO)[C@H](N)[C@@H](O)[C@@H]1O [Neomycin] | large inward currents | persist despite removal of extracellular Ca^2+ | – | – | – | evoked rapid and transient increases in [Ca^2+ ]i | did not by itself cause an increase in [Ca^2+ ]i | evoked a rapid and transient increase in [Ca^2+ ]i | blocks transient, but does not block steady-state increases in [Ca^2+ ]i; also recorded: blocked transient, but not steady-state increases in [Ca^2+ ]i | mobilization of intracellular Ca^2+ | 20 to 100 µM | – | – | – | – | –
3 | COc1cccc([C@@H](C)NCCCc2ccccc2Cl)c1 [NPS R-568, (R)-(+)-N-[3-(2-chlorophenyl)propyl]-α-methyl-3-methoxybenzylamine] | caused increases in the Cl^- | abolished in the absence of extracellular Ca^2+ | failed to evoke responses | evoked increases in the Cl^- | abolished | evokes increases in [Ca^2+ ]i in bovine parathyroid cells in a stereospecific manner | – | – | – | – | – | shifts the concentration-response curve for extracellular Ca^2+; also recorded: shift to the left in the concentration-response curve for extracellular Ca^2+ | fails to evoke increases in [Ca^2+ ]i; also recorded: do not cause the mobilization of intracellular Ca^2+ | potentiated the responses to submaximal concentrations of extracellular Ca^2+; also recorded: shift the extracellular Ca^2+ concentration-response curve to the left | activated the oocyte-expressed receptor at about the same concentrations | shifted the concentration-response curve to the left
